From US7270966B2, “Human pyrimidine receptor” (Euroscreen SA, priority 1995, dated 2007)
Read-outs that look alike come from different tables or passages of the source.

Tests used:
human P2Y4 receptor [1] = target: T1, human P2Y4 receptor (Homo sapiens, UniProt P51582); experiment: InsP3 accumulation in 1321N1 cells expressing the human P2Y4 receptor; assay type: cell-based; settings: for agonist effect on InsP3 at 30 s: 30 s incubation, 100 μM; for effect per se on InsP3 production: agonist alone; for functional response (IP3 accumulation) in pool of G418-resistant clones: pool of transfected 1321N1 clones
T1 construct: expressed in transfected cells; host or cells: 1321N1 human astrocytoma cells, G418-selected clone, pcDNA3-P2Y4
T1 sequence (P51582 whole entry): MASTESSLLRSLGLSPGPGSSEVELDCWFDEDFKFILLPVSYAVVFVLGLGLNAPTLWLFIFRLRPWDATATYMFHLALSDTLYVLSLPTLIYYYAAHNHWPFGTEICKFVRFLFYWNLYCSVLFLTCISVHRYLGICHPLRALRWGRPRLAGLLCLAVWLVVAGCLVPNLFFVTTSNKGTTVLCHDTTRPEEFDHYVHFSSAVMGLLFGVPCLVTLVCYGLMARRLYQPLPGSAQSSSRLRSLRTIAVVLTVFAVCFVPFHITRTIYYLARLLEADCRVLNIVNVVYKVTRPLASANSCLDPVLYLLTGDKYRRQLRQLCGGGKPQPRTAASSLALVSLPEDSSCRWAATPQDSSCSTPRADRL
Protocol: Cells were transfected with the recombinant pcDNA3 plasmid (pcDNA3-P2Y4) using the calcium phosphate precipitation method as described (16). 1321N1 cells were incubated for 6 hours at 37° C. in the presence of pcDNA3 vector alone or vector containing the P2Y4 receptor coding sequence, then washed and incubated in culture medium (10% FCS, 100 U/ml penicillin, 100 μ/ml streptomycin and 2.5 μg/ml amphotericin B in Dulbecco's modified Eagle's medium (DMEM)). The selection with G418 (400 μg/ml) was started two days after transfection. From the pool of transfected 1321N1 cells, individual clones were isolated by limiting dilution with the aim of selecting clones with high IP stimulation factors in response to nucleotides. The different clones were maintained in a medium containing 400 μg/ml G418.
(§1) 1321N1 cells were labeled for 24 hours with 10 μCi/ml [^3H] inositol in inositol-free DMEM (Dulbecco's modified Eagle's medium) medium containing 5% fetal calf serum, 100 U/ml penicillin, 100 μg/ml streptomycin, 2.5 μg/ml amphotericin B and 400 μg/ml G418. Cells were washed twice with KRH (Krebs-Ringer Hepes) buffer of the following composition: (124 mM NaCl, 5 mM KCl, 1.25 mM MgSC4, 1.45 mM CaCl2, 25 mM Hepes (pH 7.4) and 8 mM glucose) and incubated in this medium for 30 min The agonists were added in the presence of LiCl (10 mM) and the incubation was stopped after 30 s, 5 min or 20 min by the addition of an ice-cold 3% perchloric acid solution. For the time course study, LiCl (10 mM) was added 5 min before the agonists and the incubation was stopped at different times. When tested, pertussis toxin (20 ng/ml) was added for 18 h during the labeling period time and during the stimulation by the agonist. Inositol phosphates were extracted and InsP3 was isolated by chromatography on Dowex column as described previously (17).

[2] = tested on: muscarinic receptors endogenously expressed in the 1321N1 cells; experiment: Action of carbachol (InsP3) via muscarinic receptors endogenously expressed in 1321N1 cells; assay type: cell-based, human; settings: cells transfected with P2Y4-pcDNA3 or vector alone
Protocol: as §1
The maximal effect of ATP observed after a 20 min incubation represented about 27±9% of that of UTP (mean±S.D. of ten experiments). […] The ATP concentration-inhibition curves were shifted to the right when the UTP concentration was increased, indicating the competitive nature of this inhibitory effect (panels A and B). On the other hand, at lower concentrations (30-300 μM), ATP enhanced the response to UTP by 29% (range 12-47%, mean of four experiments) (panel B). […] This observation was reproduced with cells transfected with the recombinant P2Y4-pcDNA3 plasmid or with the vector alone and was also obtained with AMP and adenosine (data not shown).

human P2Y4 receptor [3] = target: T1, human P2Y4 receptor; experiment: Radioligand binding of [α32P]UTP to membranes of P2Y4-transfected 1321N1 clones; settings: clones 2, 11 and 21; 0.5 nM radioligand; data not shown
Protocol: Binding assays of [α^32P] UTP to cell membranes were carried out in Tris-HCl (50 mM, pH 7.5), EDTA 1 mM in a final volume of 0.5 ml, containing 25-50 μg of protein and 0.5 nM of radioligand (27). The assays were conducted at 30° C. for 5 min. Incubations were stopped by the addition of 4 ml of ice-cold Tris-HCl (50 mM, pH 7.5) and rapid filtration through Whatman GF/B filters under reduced pressure. The filters were then washed three times with 2 ml of the same ice-cold Tris-HCl buffer. Radioactivity was quantified by liquid scintillation counting, after an overnight incubation of the filters in liquid scintillation mixture.

[4] = 20 min incubation, 10 mM LiCl, read-out: EC50 InsP3 accumulation, full concentration-action curves
[5] = clone 2, 20 min incubation, 10 mM LiCl, read-out: EC50 InsP3 production
[6] = clone 11, 20 min incubation, 10 mM LiCl, read-out: EC50 InsP3 production
[7] = clone 21, 20 min incubation, 10 mM LiCl, read-out: EC50 InsP3 production
[8] = antagonist 100 μM, UTP 2 and 10 μM, 20 min

O=c1ccn([C@H]2C[C@H](O)[C@@H](COP(=O)(O)OP(=O)(O)OP(=O)(O)O)O2)c(=O)[nH]1 [dUTP]
agonist effect on InsP3 at 30 s (human P2Y4 receptor [1]): barely or not active
EC50 (human P2Y4 receptor [1]; [4]): 20 ± 2.3 µM

Nc1ncnc2c1ncn2[C@@H]1O[C@H](COP(=O)(O)OP(=O)(O)O)[C@@H](O)[C@H]1O [ADP]
inhibition of the action of UTP (qualitative) (human P2Y4 receptor [1]): did not inhibit
stimulation by UTP in presence of ADP, relative to UTP alone (human P2Y4 receptor [1]; ADP 100 μM, UTP 10 μM): 158±15%
effect per se on InsP3 production (human P2Y4 receptor [1]; data not shown): almost no effect
effect on the action of carbachol [2]: increased

Nc1c(S(=O)(=O)O)cc(Nc2ccc(Nc3nc(Cl)nc(Nc4cccc(S(=O)(=O)O)c4)n3)c(S(=O)(=O)O)c2)c2c1C(=O)c1ccccc1C2=O [RB-2, reactive blue 2]
inhibition of the UTP response by antagonist (human P2Y4 receptor [1]): 33±5%

O=c1ccn([C@@H]2O[C@H](COP(=O)(O)OP(=O)(O)OP(=O)(O)O)[C@@H](O)[C@H]2O)c(=O)[nH]1 [UTP, uridine triphosphate]
EC50 (human P2Y4 receptor [1]; 20 min, 100 μM PPADS, read-out: EC50 value for UTP in the presence of PPADS): 12.2 ± 4.5 µM
EC50 (human P2Y4 receptor [1]; 20 min, no PPADS, read-out: EC50 value for UTP in the absence of PPADS): 3.3 ± 0.6 µM
EC50 (human P2Y4 receptor [1]; [4]): 2.5 ± 0.6 µM
EC50 (human P2Y4 receptor [1]; [5]): 0.3 ± 0.1 µM
potency of UTP relative to UDP (human P2Y4 receptor [1]; clone 11, 20 min incubation): 10 fold
EC50 (human P2Y4 receptor [1]; [6]): 2.4 ± 0.1 µM
EC50 (human P2Y4 receptor [1]; [7]): 0.3 ± 0.1 µM
functional response (IP3 accumulation) in pool of G418-resistant clones (human P2Y4 receptor [1]): agonists

Nc1ncnc2c1ncn2[C@@H]1O[C@H](COP(=O)(O)O)[C@@H](O)[C@H]1O [AMP]
effect per se on InsP3 production (human P2Y4 receptor [1]; data not shown): without any effect
effect on the action of carbachol [2]: increased

O=c1[nH]cnc2c1ncn2[C@@H]1O[C@H](COP(=O)(O)OP(=O)(O)OP(=O)(O)O)[C@@H](O)[C@H]1O [ITP]
agonist effect on InsP3 at 30 s (human P2Y4 receptor [1]): barely or not active
EC50 (human P2Y4 receptor [1]; [4]): 32.8 ± 5.4 µM

O=c1ccn(C2OC(CO[32P](=O)(O)OP(=O)(O)OP(=O)(O)O)C(O)C2O)c(=O)[nH]1 (stereo not drawn) [[α^32P] UTP]
specific binding versus cells transfected with the vector alone (human P2Y4 receptor [3]): no increase in specific binding

pertussis toxin
inhibition of the UTP response by pertussis toxin (human P2Y4 receptor [1]; 20 ng/ml, 18 hours pretreatment, UTP 100 μM, 30 s): 62±5%
effect of pertussis toxin on the UTP response (human P2Y4 receptor [1]; 20 ng/ml, 18 hours pretreatment, UTP 100 μM, 5 min): no significant effect
effect of pertussis toxin on the UTP response (human P2Y4 receptor [1]; 20 ng/ml, 18 hours pretreatment, UTP 100 μM, 20 min): no significant effect

Nc1ncnc2c1ncn2[C@@H]1O[C@H](CO)[C@@H](O)[C@H]1O [adenosine]
effect per se on InsP3 production (human P2Y4 receptor [1]; data not shown): without any effect
effect on the action of carbachol [2]: increased

Nc1ncnc2c1ncn2[C@@H]1O[C@H](COP(=O)(O)OP(=O)(O)OP(O)(O)=S)[C@@H](O)[C@H]1O [ATPyS]
effect per se on InsP3 production (human P2Y4 receptor [1]; data not shown): without any effect

Cc1nc(N=Nc2ccc(S(=O)(=O)O)cc2S(=O)(=O)O)c(COP(=O)(O)O)c(C=O)c1O [PPADS]
inhibition of the UTP response by antagonist (human P2Y4 receptor [1]; [8]): 73±14%
IC50 (human P2Y4 receptor [1]; data not shown, read-out: IC50 for inhibition of the UTP response): ~15 µM

O=c1[nH]c(=O)n([C@@H]2O[C@H](COP(=O)(O)OP(=O)(O)OP(=O)(O)O)[C@@H](O)[C@H]2O)cc1Br [5BrUTP]
agonist effect on InsP3 at 30 s (human P2Y4 receptor [1]): barely or not active
EC50 (human P2Y4 receptor [1]; [4]): 27.1 ± 1.9 µM

O=c1ccn([C@@H]2O[C@H](COP(=O)(O)O)[C@@H](O)[C@H]2O)c(=O)[nH]1 [UMP]
effect per se on InsP3 production (human P2Y4 receptor [1]; data not shown): without any effect

Nc1ncnc2c1ncn2[C@@H]1O[C@H](COP(=O)(O)OP(=O)(O)OP(=O)(O)O)[C@@H](O)[C@H]1O [ATP]
agonist effect on InsP3 at 30 s (human P2Y4 receptor [1]): no effect
EC50 (human P2Y4 receptor [1]; [4]): ~43 µM
maximal effect relative to that of UTP (human P2Y4 receptor [1]; 20 min incubation, % of UTP maximal effect): about 27±9%
enhancement of the response to UTP (human P2Y4 receptor [1]; ATP 30-300 μM, 20 min): 29%
antagonism of the response to UTP (human P2Y4 receptor [1]; UTP 10 μM, ATP 2 mM, 30 s): fully antagonized
inhibition of the UTP effect (human P2Y4 receptor [1]; UTP 10 μM, ATP 2 mM, 20 min): 62±11%
ATP concentration able to inhibit the effect of UTP (human P2Y4 receptor [1]; both at 30 s and 20 min): ≥ 500 µM
functional response (IP3 accumulation) in pool of G418-resistant clones (human P2Y4 receptor [1]): agonists
effect on the action of carbachol [2]: increased

O=c1ccn([C@@H]2O[C@H](COP(=O)(O)OP(=O)(O)O)[C@@H](O)[C@H]2O)c(=O)[nH]1 [UDP]
agonist effect on InsP3 at 30 s (human P2Y4 receptor [1]): barely or not active
EC50 (human P2Y4 receptor [1]; [4]): 19.5 ± 3.9 µM
EC50 (human P2Y4 receptor [1]; [5]): 3.3 ± 0.6 µM
EC50 (human P2Y4 receptor [1]; [6]): 19.8 ± 4.8 µM
EC50 (human P2Y4 receptor [1]; [7]): 3.2 ± 0.8 µM

Cc1ccc(C(=O)Nc2ccc(S(=O)(=O)O)c3cc(S(=O)(=O)O)cc(S(=O)(=O)O)c23)cc1NC(=O)c1cccc(NC(=O)Nc2cccc(C(=O)Nc3cc(C(=O)Nc4ccc(S(=O)(=O)O)c5cc(S(=O)(=O)O)cc(S(=O)(=O)O)c45)ccc3C)c2)c1 [suramin]
inhibition of the UTP response by antagonist (human P2Y4 receptor [1]; [8]): inactive

O=c1ccn([C@@H]2O[C@H](CO)[C@@H](O)[C@H]2O)c(=O)[nH]1 [uridine]
effect per se on InsP3 production (human P2Y4 receptor [1]; data not shown): without any effect
